“Also recorded” adds a separate entry of the source.
Legend:
rat liver mitochondria = assay: H2O2 formation by rat liver mitochondria (prooxidant effect, Amplex Red); assay type: biochemical; conditions: up to 15 um concentrations in the medium; FIG. 15
Description: Incubation medium contained 0.18 M mannitol, 0.07 M sucrose, 0.2 mM Tris-phosphate, 0.5 mM EGTA, pH 7.2, 20 mM Tris-succinate, 2 uM Amplex Red, 5 U horseradish Peroxidase, 6 mM aminotriazole (an inhibitor of catalase) and mitochondria corresponding to 0.25 mg protein. Excitation wavelength was of 563 nm, Emission wavelength was of 585 nm.

human fibroblasts = assay: Protection from peroxide-induced cell death; assay type: cell-based; conditions: for protection from H2O2-induced apoptosis: FIG. 22
Description: Its activity was compared to the one of the most efficient MTA-SkQR1. The experiment was performed according to Antonenko et al., (Biochem. (Mosc.) (2008) 73:1273-1287 and the results are shown in FIG. 11.
The experiment was performed according to Antonenko et al., (Biochem. (Mosc.) (2008) 73:1273-1287. (see FIG. 12).
These experiments were performed as described in Antonenko et al (2008).

[1] = test system: Y. lipolytica mitochondria; assay: H2O2 formation by Y. lipolytica mitochondria (Amplex red); assay type: biochemical; conditions: for rate of H2O2 formation by Y. lipolytica mitochondria: certain concentrations, 0.1 mg mitochondrial protein, FIG. 13, 14
Description: The experiment was performed in the following conditions: incubation medium contained 0.6 M mannitol, 20 mM Tris-succinate,0.5 mM EGTA, 0.2 mM Tris-phosphate, pH 7.2, 2 uM Amplex red, horse radish peroxidase (5 U) and mitochondria corresponding to 0.1 mg protein. […] Measurements were made using absorption/emission 530/590 nm.

[2] = test system: multi-drug resistance (MDR) proteins in HeLa cells; assay: Accumulation of SkQ variants in HeLa cells / expulsion by MDR pumps (flow cytometry); assay type: cell-based, human; conditions: for order of decreasing MDR-affinity: correlation suggested by the example; for accumulation in HeLa cells after MDR inhibitor: 100 nM SkQs, Pluronic L61 30 ug/ml added 10 minutes before, FIG. 17
Description: In the following experiment we have evaluated MDR expulsion of a timoquinone based SkQRT. HeLa cells were treated with 100 nM SkQRT and the activity of multidrug resistance pumps was estimated by fluorescence measurement using a Beckman Coulter FC 500 flow cytometer. […] Cells were incubated with 100 nM SkQs. After 60 minute, the medium was changed to control medium without SkQs (indicated with vertical line). […] It must be noted that MDR pumps are usually activated in tumor cells (for example HeLa), but not in normal non-malignant cells (fibroblasts or 3T3 cells).

mitochondria [3] = conditions: mitochondria supplemented with certain concentrations of SkQT; FIG. 8
Description: Several compounds according to the invention were synthesized as described above and tested for biological activity as described in Antonenko et al., (Biochem. (Mosc.) (2008) 73:1273-1287).

[4] = test system: electron transport chain (ETC) of mitochondria isolated from rat heart
[5] = test system: primary cultured human fibroblasts; assay: Accumulation in primary cultured human fibroblasts (non-tumor cells); assay type: cell-based; conditions: FIG. 18
isolated mitochondria = assay: Antioxidant activity in isolated mitochondria damaged by the Fenton reaction; conditions: FIG. 20
Description: Antioxidant activity was measured in isolated mitochodnria subjected to oxidative damage by the Fenton reaction (method described in Antonenko et al 2008).

energized mitochondria = assay: Reduction of SkQB by energized mitochondria; assay type: biochemical; conditions: FIG. 19
mitochondria [6] = assay: Hydrogen peroxide production by mitochondria in the presence of antimycin A; assay type: biochemical; conditions: FIG. 21
Description: In the next experiment we measured hydrogen peroxide production by mitochondria in the presence of antimycin A (as described in Skulachev et al 2010, Biochim Biophys Acta, 1797(6-7), 878-8).

Molecule | order of decreasing MDR-affinity [2] | accumulation in HeLa cells after MDR inhibitor [2] | accumulation in human fibroblasts, SkQR1 compared with SkQRT1 [5] | prooxidant effect: stimulation of H2O2 formation by rat liver mitochondria at high concentrations (rat liver mitochondria) | protection from H2O2-induced apoptosis (human fibroblasts) | rate of H2O2 formation by Y. lipolytica mitochondria [1] | further results
10-(2-methyl-1,4-benzoquinonyl-5)decyltriphenylphosphonium bromide [SkQT] |  |  |  | did not stimulate H202 formation | good protection | dramatically decrease | protection of mitochondria from oxidative damage (malondialdehyde concentration) (mitochondria [3]): successfully protected mitochondria from oxidative damage; prevention of peroxide-induced cell death (human fibroblasts; FIG. 11): very efficient; protection from H2O2-induced cell death by different dosages (human fibroblasts; FIG. 12): protection of human fibroblasts; window between lowest and highest no effect doses ([1]; compared with SkQ1, biological examples 5 and 6): much wider; hydrogen peroxide formation by mitochondria at optimal concentration ([1]; optimal concentration, biological examples 5 and 6): almost completely prevented hydrogen peroxide formation; effect of myxothiasole on reduction of the quinone form ([4]; 1 uM myxothiasole added at 10 min point, FIG. 10): prevented further reduction; reduction by mitochondria ([4]; rat heart mitochondria 0.05 mg/ml, 5 mM succinate, 2 uM rotenone, 100 nM SkQT, FIG. 9): can be reduced by mitochondria
CCN=c1cc2oc3cc(NCC)c(C)cc3c(-c3ccccc3C(=O)OCCCCCCCCCCC3=CC(=O)C(C)=CC3=O)c-2cc1C [SkQRT1, 10-(2-methyl-1,4-benzoquinonyl-5)-decyl ester of rhodamine 19] |  | increased accumulation | no significant difference |  |  |  | 
O=C1C=CC(=O)C(CCCCCCCCCC[P+](c2ccccc2)(c2ccccc2)c2ccccc2)=C1 [SkQB, 10-(1,4-benzoquinonyl-2)decyltriphenylphosphonium bromide] | SkQB>SkQT>SkQ1>SkQ3 |  |  |  | weak protection |  | antioxidant activity (isolated mitochondria): very weak antioxidant activity; also recorded: lower compared to SkQ1; reduction by energized mitochondria (energized mitochondria): can be reduced by energized mitochondria in an antimycin-sensitive way; hydrogen peroxide production (pro-oxidant activity) (mitochondria [6]): pronounced pro-oxidant activity; also recorded: to a greater extent than SkQ1

Second part, led by results:

order of decreasing MDR-affinity [2] | accumulation in HeLa cells after MDR inhibitor [2] | accumulation in human fibroblasts, SkQR1 compared with SkQRT1 [5] | Molecule | prooxidant effect: stimulation of H2O2 formation by rat liver mitochondria at high concentrations (rat liver mitochondria) | protection from H2O2-induced apoptosis (human fibroblasts) | rate of H2O2 formation by Y. lipolytica mitochondria [1] | further results
SkQB>SkQT>SkQ1>SkQ3 |  |  | CC1=C(C)C(=O)C(CCCCCCCCCC[P+](c2ccccc2)(c2ccccc2)c2ccccc2)=CC1=O.[Br-] [SkQ1, reference compound] | prooxidant effect | good protection | considerably lower | 
SkQB>SkQT>SkQ1>SkQ3 |  |  | CC1=C(C)C(=O)C(CCCCCCCCCC[P+](c2ccccc2)(c2ccccc2)c2ccccc2)=C(C)C1=O [SkQ3] |  |  |  | 
 | increased accumulation | no significant difference | CC/N=c1/cc2oc3cc(NCC)c(C)cc3c(-c3ccccc3C(=O)OCCCCCCCCCCC3=CC(=O)C(C)=C(C)C3=O)c-2cc1C [SkQR1, reference compound] |  |  |  | 

Reference: patent publication US20160279154A1, “MITOCONDRIALLY-TARGETED TIMOQUINONES AND TOLUQUINONES” (MITOTECH SA, priority 2014, published 2016)
